Residues, ends and D or L forms follow the SMILES beside them.
Experiment: toxic or side effect on mice after injection for several times (serum biochemistry)
Assay type: in vivo, C57 mice
Method: During sampling of the mice with myocardial infarction modeling for 4 weeks and intramyocardial injection of the polypeptide PAFRK29 for 5 times in Example 6, peripheral blood of the mice was collected into an anticoagulant tube and centrifuged at 1,000 g for 10 minutes. Serum of a supernatant was taken, and levels of blood urea nitrogen (BUN), serum alanine aminotransferase (ALT) and serum aspartate aminotransferase (AST) were determined by an automatic biochemical analyzer.

[1] = myocardial infarction mice, 4 weeks, intramyocardial injection 5 times, vs control group

With `CC(C)[C@H](NC(=O)[C@@H]1CCCN1C(=O)[C@H](Cc1c[nH]cn1)NC(=O)[C@H](CCCCN)NC(=O)[C@H](Cc1ccc(O)cc1)NC(=O)[C@H](CCC(N)=O)NC(=O)[C@H](CCCNC(=N)N)NC(=O)[C@H](CO)NC(=O)[C@H](Cc1c[nH]cn1)NC(=O)[C@H](Cc1ccccc1)NC(=O)[C@H](Cc1ccc(O)cc1)NC(=O)[C@H](CCC(N)=O)NC(=O)CNC(=O)[C@H](CCC(N)=O)NC(=O)[C@H](Cc1ccccc1)NC(=O)[C@H](CCCNC(=N)N)NC(=O)[C@H](CCCNC(=N)N)NC(=O)[C@H](CCCNC(=N)N)NC(=O)[C@H](CCC(N)=O)NC(=O)[C@H](CCCNC(=N)N)NC(=O)[C@H](CCCNC(=N)N)NC(=O)[C@H](CCCCN)NC(=O)[C@H](CCCCN)NC(=O)[C@@H](N)CCCNC(=N)N)C(=O)NCC(=O)N[C@@H](Cc1ccc(O)cc1)C(=O)N[C@@H](CCC(=O)O)C(=O)NCC(=O)N[C@@H](CCCCN)C(=O)O` [PAFRK29] (H-RKKRRQRRRFQGQYFHSRQYKHPVGYEGK-OH; N-terminus and C-terminus assumed) the “toxic or side effect on the mice” value (at an effective anti-fibrosis dose) was “no obvious toxic or side effect”, the “level of blood urea nitrogen (BUN)” value [1] was “no obvious differences” and the “level of serum alanine aminotransferase (ALT)” value [1] was “no obvious differences”. The “level of serum aspartate aminotransferase (AST)” value [1] was “no obvious differences”.

— patent US20250066425A1, “POLYPEPTIDE AND APPLICATION THEREOF IN PREPARATION OF ANTI-FIBROSIS DRUG” (priority 2022, published 2025)
